Literature values as cited in patent publication US8153159B2, “Modafinil modified release pharmaceutical compositions” (Cephalon, Inc., priority 2003, dated 2012).

Columns and labels:
mice = conditions: single administration, Duteil et al. 1990
monkeys = conditions: single administration, Duteil et al. 1990
humans = conditions: Bastuji et al. 1988

In the case of `NC(=O)C[S+]([O-])C(c1ccccc1)c1ccccc1` (stereo not drawn) [Modafinil, 2-(benzhydrylsulfinyl)acetamide], the locomotor activity (mice) is listed as “increased locomotor activity”, the nocturnal activity (monkeys) is listed as “increased nocturnal activity” and the “treatment of idiopathic hypersomnia and narcolepsy” value (humans) is listed as “successfully tested”.
